Data as given in patent publication US5512671A, “Ether lipid-nucleoside covalent conjugates” (Wake Forest University, priority 1995, dated 1996).

Experiments:
HIV-1 [1] = assay: HIV-1 plaque formation in CEM-SS cells (Example 23); type: cell-based; details: for IC50: read-out: IC50 HIV-1 Plaque Formation; for D.S. (Differential selectivity): average IC50 for CEMSS cell growth / average IC50 for HIV1 plaque formation
Experimental: Anti-HIV1 Activity of Lipid-Nucleoside Conjugates. CEM-SS cells were seeded (50,000 cells/ml RPMI-1640 growth medium) as a monolayer in 96-well dishes, innoculated with 50 to 100 plaque forming units of HIV-1 and overlaid with serial dilutions of lipid-nucleoside conjugate in RPHI-1640 growth medium. Plaques were counted after five days incubation at 37° C. to determine the 50% inhibitory concentration.

HIV-1 [2] = assay: Plaque assay: inhibition of HIV-1 syncytial plaque formation in CEM-SS cells (Example 15); type: cell-based, human immunodeficiency virus type 1 (HIV-1); details: for IC50: Human immunodeficiency virus 1, CEM-SS, 120 h, read-out: Inhibitory Concentration50 for HIV-1 Plaque Formation; for Differential Selectivity: ratio IC50 for cytotoxicity / IC50 for HIV1 plaque formation
Description: Anti-HIV1 Activity of Lipid-Nucleoside Conjugates. […] In brief, CEM-SS cell monolayers were infected with HIV-1. […] Plaques were counted at five days after infection. In this assay HIV-1 syncytial plaques are seen as large, multicellular foci (10 to 25 nuclei/syncytium) that appear either brown and granular or clear. Silnce the number of HIV-1 syncytial plaques correlates with reverse transcriptase (RT) and p24 core antigen activity in the HIV-1 infected cell overlay fluids, the syncytial plaque assay can be used to quantify the amount of infectious virus. […] The activity of p24 core antigen induced by HIV-1 infection of CEM-SS cells was measured spectrophotometrically using the commercial Coulter EIA.

in vitro = details: human, cem-ss cells
HIV-1 [3] = assay: HIV-1 induced RT in persistently infected monocyte/macrophage (U1) cells; type: cell-based; details: control 79,328 DPM = 100
Description: (§1) See C. Perno et al., J. Exp. Med. 168, 1111 (1984).

HIV-1 [4] = assay: HIV-1 induced p24 core antigen synthesis in persistently infected monocyte/macrophage (U1) cells; type: cell-based; details: control 94 = 100
Description: as §1

HIV-1 [5] = assay: Infectious HIV-1 production (PFU) in persistently infected monocyte/macrophage (U1) cells; type: cell-based
Description: as §1

CEM-SS cells [6] = assay: CEM-SS cell growth, 3H-Tdr pulse label DNA synthesis (Example 23); type: cell-based; details: Homo sapiens, 48 hours at 37° C., then 3H-Tdr 8 hours
CEM-SS cells [7] = assay: Cell cytotoxicity (Example 15, Table 1); details: conjugate IC50 53.8 μM vs AZT IC50 5.6 μM
[8] = Human immunodeficiency virus 1, 120 h, CEM-SS cells, five days incubation at 37° C.

Structure (SMILES)	IC50 (HIV-1 [2]) [nM]	Differential Selectivity (HIV-1 [2])	CC50 (in vitro) [nM]	further results
CCCCCCCCCCCCCCCCCC(=O)NCC(COP(=O)([O-])OC(CC(=O)OC[C@H]1O[C@@H](n2cc(C)c(=O)[nH]c2=O)C[C@@H]1N=[N+]=[N-])C[N+](C)(C)C)OCC (stereo partly drawn) [BB, 3'-Azido-3-deoxythymidine-5'-butyrate-γ-N,N,N-trimethyl-ammonium-β-(1-phospho-2-ethoxy-3octadecanamidopropane)]	–	–	–	IC50 (HIV-1 [1]; [8]): 40 nM; D.S. (Differential selectivity) (HIV-1 [1]): 342
CCCCCCCCCCCCCCCCSCC(COP(=O)(O)OC[C@H]1O[C@@H](n2cc(C)c(=O)[nH]c2=O)C[C@@H]1N=[N+]=[N-])OC (stereo partly drawn) [Compound C, 3'azido-3'-deoxythymidine-5'-monophosphate-D,L-3-hexadecylthio-2-methoxypropane]	20 ± 10	1465	29200 ± 5700	–
CCCCCCCCCCCCCCCCCC(=O)NCC(COP(=O)(O)OC[C@H]1O[C@@H](n2cc(C)c(=O)[nH]c2=O)C[C@@H]1N=[N+]=[N-])OCC (some centres unmarked) [A]	30 ± 20	–	53800 ± 7800	–
Cc1cn([C@H]2C[C@H](N=[N+]=[N-])[C@@H](CO)O2)c(=O)[nH]c1=O [AZT, 3'-azido-3'-deoxythymidine]	4 ± 1	–	5600	RT DPM, Percent of Control (HIV-1 [3]): 90% of Control; p24 core Ag, Percent of Control (HIV-1 [4]): 101% of Control; inhibition of infectious HIV-1 production (HIV-1 [5]): 13%; PFU, Percent of Control (HIV-1 [5]; control 750 PFU = 100): 87% of Control; IC50 (HIV-1 [1]; Human immunodeficiency virus 1, CEM-SS, 120 h): 4 nM
CCCCCCCCCCCCCCCCOCC(COP(=O)([O-])OC(CC(=O)OC[C@H]1O[C@@H](n2cc(C)c(=O)[nH]c2=O)C[C@@H]1N=[N+]=[N-])C[N+](C)(C)C)OCC (stereo partly drawn) [Compound AA, 3'-Azido-3'-deoxythymidine-5'-butyrate-γ-N,N,N-trimethyl-ammonium-β-(1-phospho-2-ethoxy-3-hexadecyloxypropane)]	–	–	–	IC50 (HIV-1 [1]; [8]): 4 nM; D.S. (Differential selectivity) (HIV-1 [1]): 3375
CCCCCCCCCCCCCCCCOCC(COP(=O)(O)OC[C@H]1O[C@@H](n2cc(C)c(=O)[nH]c2=O)C[C@@H]1N=[N+]=[N-])OCC (stereo partly drawn) [Compound B, 3'-azido-3'deoxythymidine-5'-monophosphate-D,L-3-hexadecyloxy-2-ethoxypropane]	30 ± 20	1167	35000 ± 2100	–
CCCCCCCCCCCCCCCCOCC(CP(=O)(O)OC[C@H]1O[C@@H](n2cc(C)c(=O)[nH]c2=O)C[C@@H]1N=[N+]=[N-])OC (stereo partly drawn) [Compound E, 3'-Azido-3'-deoxythymidine-5'-phosphono-D,L-3-hexadecyloxy-2-methoxypropane]	20 ± 10	1260	25200 ± 1100	–
CCCCCCCCCCCCCCCCCC(=O)NCC(COP(=O)(O)OP(=O)(O)OC[C@H]1O[C@@H](n2cc(C)c(=O)[nH]c2=O)C[C@@H]1N=[N+]=[N-])OCC (stereo partly drawn) [Compound H, 3'-Azido-3-deoxythymidine-5'-diphosphate-D,L-3-octadecanamido-2-ethoxypropane]	–	–	–	IC50 (HIV-1 [1]; [8]): 11 nM; D.S. (Differential selectivity) (HIV-1 [1]): 600; IC50 (CEM-SS cells [6]): 6600 nM
CCCCCCCCCCCCCCCCCC(=O)NCC(COP(=O)(O)OC[C@H]1O[C@@H](n2cc(C)c(=O)[nH]c2=O)C[C@@H]1N=[N+]=[N-])OCC (stereo partly drawn) [Compound A, 3,-azido-3'-deoxythymidine-5'-monophosphate-D,L-3-octadecanamido-2-ethoxypropane]	–	–	–	decrease in cell cytotoxicity compared to AZT (CEM-SS cells [7]): about ten-fold
CCCCCCCCCCCCCCCCOCC(COP(=O)(O)OP(=O)(O)OCC1OC(n2cc(C)c(=O)[nH]c2=O)CC1N=[N+]=[N-])OCC [A, 3'-Azido-3'-deoxythymidine-5'-diphosphate-D,L-3-hexadecyloxy-2-ethoxypropane]	–	–	–	IC50 (CEM-SS cells [6]): > 100000 nM
O=c1[nH]cnc2c1ncn2[C@H]1CC[C@@H](CO)O1 [DDI, dideoxyinosine, reference compound]	1700	–	> 100000	–
CCCCCCCCCCCCCCCCCC(=O)NCC(COP(=O)(O)OC[C@@H]1CC[C@H](n2cnc3c(=O)[nH]cnc32)O1)OCC (stereo partly drawn) [Compound D, 2,3,-dideoxyinosine-5'-monophosphate-D,L-3-octadecanamido-2-ethoxypropane]	1560 ± 800	> 64	> 100000	–
